{
  "source": "patent US4174402A",
  "about": "“Method for the prophylaxis of SRS-A-induced symptoms” (priority 1978, dated 1979)",
  "key": {"[1]": {"assay": "Oral toxicity, 5 weeks, Charles River CD albino rats", "assay_type": "in vivo, rat"}, "serotonin": {"test_system": "serotonin", "assay": "Test Procedure 6: serotonin-induced bronchoconstriction in anesthetized guinea pigs", "assay_type": "in vivo, guinea pig", "protocol": "Guinea pigs, weighing 275-340 g, were anesthetized and prepared for measurements of resistance to pulmonary inflation using a slightly modified Konzett-Rossler method (see Test Procedure 2). All guinea pigs received 0.1 mg/kg of propranolol iv and 5 minutes later, 50 mcg/kg of serotonin (creatinine complex) iv. Compound b or cyproheptadine were administered iv just before the injection of propranolol at 50 or 5 mg/kg, respectively. Compound b was prepared as a 5% solution in 5% N-methylglucamine and cyproheptadine as a 0.25% aqueous solution."}, "[2]": {"assay": "Oral toxicity, 5 weeks, rhesus monkeys", "assay_type": "in vivo, rhesus monkey", "protocol": "The oral toxicity of compound b at doses of 5.0, 32.0, 75.0 and 200 mg/kg/day for 5 weeks was studied in rhesus monkeys."}, "SRS-A [3]": {"test_system": "SRS-A", "assay": "Test Procedure 3: SRS-A-induced increase in resistance to pulmonary inflation in anesthetized cats", "assay_type": "in vivo, cat", "protocol": "The trachea of each cat was cannulated, and the cats were artificially respired at 15 strokes/minute with a stroke volume of 22 ml/kg. A side-arm of the intratracheal cannula was connected to a Statham transducer, and the intratracheal pressure was recorded continuously on a polygraph. One femoral vein was cannulated in all cats receiving intravenous administration of drugs. In addition, most of the cats were cannulated through the femoral artery; this cannula was attached to another Statham transducer, and the blood pressure of these cats recorded. All cats received 1.0 mg/kg of propranolol and 0.2 mg/kg of thenyldiamine intravenously 3 minutes before iv injection of SRS-A. SRS-A was obtained from rat peritoneal cavities as described previously in Test Procedure 1. Each pool of rat ip fluid containing SRS-A was dose-ranged and a dose selected that was estimated to cause an average increase in intrapulmonary resistance to inflation in control cats by 4-6 mmHg. Test dose volumes ranged from 1.0 to 2.0 ml/kg, iv. […] Both test compounds and the sodium hydroxide vehicle were injected iv 5 minutes before the injections of SRS-A (2 minutes before the injection of propranolol and thenyldiamine)."}, "SRS-A [4]": {"test_system": "SRS-A", "assay": "Test Procedure 3: SRS-A-induced increase in resistance to pulmonary inflation in anesthetized cats", "assay_type": "in vivo, cat", "remark": "listed apart in the source"}, "SRS-A [5]": {"test_system": "SRS-A", "assay": "Test Procedure 4: competitive antagonism to SRS-A in anesthetized guinea pigs", "assay_type": "in vivo, guinea pig", "source_text": "The intratracheal pressure (ITP) of anesthetized, artificially respired guinea pigs (Konzett-Rossler preparation) was monitored and peak increases in ITP recorded. The basic methodology was the same as that described hereinabove for Test Procedure 2 except that the basic experimental unit was not two guinea pigs (medicated and control) but three guinea pigs examined in an uninterrupted sequence: a control guinea pig receiving the standard dose of SRS-A, a medicated guinea pig receiving the standard dose of SRS-A and a medicated guinea pig receiving a multiple dose of SRS-A. In this manner, the ratios of peak responses of the same sample of SRS-A could be determined for medicated/control guinea pigs (standard procedure), and for medicated guinea pigs receiving the standard dose of SRS-A. The multiple dose of SRS-A in these studies was either 3× or 6× the standard dose."}, "histamine": {"test_system": "histamine", "assay": "Test Procedure 5: histamine-induced bronchoconstriction in anesthetized guinea pigs", "assay_type": "in vivo, guinea pig", "protocol": "Guinea pigs weighing 350 to 400 g were anesthetized ip with 1.5 g/kg urethane and prepared for measurements of resistance to pulmonary inflation using a slightly modified Konzett-Rossler method (see Test Procedure 2). […] The experimental procedure was started after each guinea pig had attained its maximal, repeatable response to histamine. […] Artificial respiration was resumed 25 minutes later. Thirty minutes after the administration of one of the drugs, tne guinea pigs received two of three injections of histamine at 3-minute intervals. The average of these histamine responses (increases in resistance) was expressed as percent of the maximal histamine response obtained with the same guinea pig before the administration of the drug. In addition to sc administration, compound b was also studied following po administration. In these studies, the time interval between po medication and the secondary histamine challenges was increased to 45 minutes."}, "[6]": {"settings": "rat, in vivo, po, 640 mg/kg/day"}, "[7]": {"settings": "rhesus monkey, in vivo, po, 200 mg/kg/day"}},
  "note": "“And” between values parts separate entries of the source, which are not always exact repeats. Identical values can stand only once. “Also recorded” adds a separate entry of the source.",
  "data": [
    {"smiles": "COc1ccc2c(c1)c1c(n2C(=O)c2ccccc2)CCC(C(=O)O)C1", "note": "(stereo not shown) [Compound b, 9-benzoyl-6-methoxy-1,2,3,4-tetrahydrocarbazole-3-carboxylic acid]", "values": [
      {"measurement": "mortality", "setting": "[1]; oral 1280 mg/kg/day", "value": "all rats died within 18 days"},
      {"measurement": "growth rate", "setting": "[1]; [6]", "value": "slightly depressed"},
      {"measurement": "hematocrit", "setting": "[1]; [6]", "value": "minimally lower than controls"},
      {"measurement": "hemoglobin concentration", "setting": "[1]; [6]", "value": "minimally lower than controls"},
      {"measurement": "number of red blood cells", "setting": "[1]; [6]", "value": "minimally lower than controls"},
      {"measurement": "tolerability", "setting": "[1]; rat, in vivo, po, 1280 mg/kg/day", "value": "not well tolerated"},
      {"measurement": "effect against serotonin-induced bronchoconstriction", "setting": "serotonin; guinea pigs", "value": "no inhibitory effect; also recorded: ineffectiveness"},
      {"measurement": "Increase in Resistance (mm Hg)", "setting": "serotonin; iv 50 mg/kg, P insign.", "value": "45 ± 8", "unit": "mm Hg"},
      {"measurement": "Inhibition %", "setting": "serotonin; iv 50 mg/kg, P insign.", "value": 4, "unit": "%"},
      {"measurement": "mortality", "setting": "[2]; oral 5.0, 32.0 and 75.0 mg/kg/day, 5 weeks", "value": "no mortality occurred"},
      {"measurement": "gross or microscopic histopathologic changes", "setting": "[2]; rhesus monkey, in vivo", "value": "No gross or microscopic histophathologic changes were found"},
      {"measurement": "deaths attributed to medication", "setting": "[2]; [7]", "value": "two deaths attributed to medication occurred"},
      {"measurement": "tolerability", "setting": "[2]; [7]", "value": "not well tolerated"},
      {"measurement": "ED50", "setting": "SRS-A [3]; Felis catus, 5 min, intravenous", "value": "0.028 ± 0.024", "unit": "mg/kg"},
      {"measurement": "Max. Increase in Resistance to Pulm. Inflation, mm Hg ± S.E.", "setting": "SRS-A [3]; intravenous 0.01 mg/kg", "value": "4.1 ± 1.3", "unit": "mm Hg"},
      {"measurement": "% Inhibition", "setting": "SRS-A [3]; intravenous 0.1 mg/kg", "value": 73, "unit": "%"},
      {"measurement": "Max. Increase in Resistance to Pulm. Inflation, mm Hg ± S.E.", "setting": "SRS-A [3]; intravenous 1.0 mg/kg", "value": "0.1 ± 0.1", "unit": "mm Hg"},
      {"measurement": "inhibition of SRS-A-induced increase in resistance to inflation", "setting": "SRS-A [3]; intravenous 1.0 mg/kg", "value": "complete inhibition"},
      {"measurement": "% Inhibition", "setting": "SRS-A [4]; intravenous 0.01 mg/kg", "value": 30, "unit": "%"},
      {"measurement": "Max. Increase in Resistance to Pulm. Inflation, mm Hg ± S.E.", "setting": "SRS-A [4]; intravenous 0.1 mg/kg", "value": "1.6 ± 0.5", "unit": "mm Hg"},
      {"measurement": "% Inhibition", "setting": "SRS-A [4]; intravenous 1.0 mg/kg", "value": 98, "unit": "%"},
      {"measurement": "increase in resistance in one of seven cats", "setting": "SRS-A [4]; intravenous 1.0 mg/kg", "value": 0.5, "unit": "mm Hg"},
      {"measurement": "% Inhibition", "setting": "SRS-A [4]; oral 0.33 mg/kg", "value": 25, "unit": "%"},
      {"measurement": "Max. Increase in Resistance to Pulm. Inflation, mm Hg ± S.E.", "setting": "SRS-A [4]; oral 0.33 mg/kg", "value": "3.1 ± 0.3", "unit": "mm Hg"},
      {"measurement": "% Inhibition", "setting": "SRS-A [4]; oral 1.0 mg/kg", "value": 49, "unit": "%"},
      {"measurement": "Max. Increase in Resistance to Pulm. Inflation, mm Hg ± S.E.", "setting": "SRS-A [4]; oral 1.0 mg/kg", "value": "2.0 ± 0.8", "unit": "mm Hg"},
      {"measurement": "% Inhibition", "setting": "SRS-A [4]; oral 3.3 mg/kg", "value": 85, "unit": "%"},
      {"measurement": "Max. Increase in Resistance to Pulm. Inflation, mm Hg ± S.E.", "setting": "SRS-A [4]; oral 3.3 mg/kg", "value": "0.6 ± 0.5", "unit": "mm Hg"},
      {"measurement": "% Inhibition", "setting": "SRS-A [4]; oral 10.0 mg/kg", "value": 98, "unit": "%"},
      {"measurement": "Max. Increase in Resistance to Pulm. Inflation, mm Hg ± S.E.", "setting": "SRS-A [4]; oral 10.0 mg/kg", "value": "0.1 ± 0.1", "unit": "mm Hg"},
      {"measurement": "Ratio of peak responses, medicated (high dose SRS-A)/controls", "setting": "SRS-A [5]; 2.0 mg/kg iv, SRS-A lot B, 6x dose 12 ml/kg", "value": "2.14 ± .68 and 2.14"},
      {"measurement": "Ratio of peak responses, medicated (low dose SRS-A)/controls", "setting": "SRS-A [5]; 2.0 mg/kg iv, SRS-A lot B, standard dose 2 ml/kg", "value": "0.14 ± 0.7 and 0.14"},
      {"measurement": "% Inhibition", "setting": "SRS-A [5]; 2.0 mg/kg iv, six-fold SRS-A dose", "value": 0, "unit": "%"},
      {"measurement": "% Inhibition", "setting": "SRS-A [5]; 2.0 mg/kg iv, standard dose of SRS-A", "value": 86, "unit": "%"},
      {"measurement": "Ratio of peak responses, medicated (high dose SRS-A)/controls", "setting": "SRS-A [5]; 3.3 mg/kg iv, SRS-A lot A, 3x dose 12 ml/kg", "value": "0.76 ± .20 and 0.76"},
      {"measurement": "Ratio of peak responses, medicated (low dose SRS-A)/controls", "setting": "SRS-A [5]; 3.3 mg/kg iv, SRS-A lot A, standard dose 4 ml/kg", "value": "0.12 ± 0.3 and 0.12"},
      {"measurement": "% Inhibition", "setting": "SRS-A [5]; 3.3 mg/kg iv, standard dose of SRS-A", "value": 88, "unit": "%"},
      {"measurement": "% Inhibition", "setting": "SRS-A [5]; 3.3 mg/kg iv, three-fold SRS-A dose", "value": 24, "unit": "%"},
      {"measurement": "mode of antagonism to SRS-A", "setting": "SRS-A [5]; iv", "value": "competitive antagonist to SRS-A"},
      {"measurement": "effect against histamine-induced bronchoconstriction (activity profile)", "setting": "histamine; guinea pigs", "value": "ineffectiveness"},
      {"measurement": "inhibition of histamine-induced bronchoconstriction", "setting": "histamine; oral 100 mg/kg", "value": "no significant inhibition"},
      {"measurement": "% Inhibition", "setting": "histamine; po 100 mg/kg", "value": 16, "unit": "%"},
      {"measurement": "Histamine-Response in % of Premed. Histamine Response", "setting": "histamine; po 100 mg/kg", "value": "84 ± 26", "unit": "%"},
      {"measurement": "% Inhibition", "setting": "histamine; sc 100 mg/kg", "value": 8, "unit": "%"},
      {"measurement": "Histamine-Response in % of Premed. Histamine Response", "setting": "histamine; sc 100 mg/kg", "value": "92 ± 2", "unit": "%"},
      {"measurement": "inhibition of histamine-induced bronchoconstriction", "setting": "histamine; sc 100 mg/kg", "value": "no significant inhibition"}
    ]}
  ]
}
